Test [1] relates to golden hamsters (60% high-fat food, STZ induced). Kind of test: Golden hamster disease model, animal model induction group (16-week-old group): blood biochemical indexes and body weight. It counts as in vivo. The note with it: for change rate of blood glucose %: 0.1 mL of 6.8 mg/mL DMSO solution + 0.25 mL whole milk by gavage once a day for 2 weeks; for change rate of body weight after deduction of DMSO blank %: DMSO blank deducted; for average body weight after administration/g / change of body weight/g / change rate of body weight %: after gavage once a day for 2 weeks; for HDL % / LDL % / total cholesterol % / triglyceride %: change rate, gavage once a day for 2 weeks. The protocol:
(§1) Animals and feed: 1) 8-week-old male golden hamsters with a body weight range of 100±5 g were selected; 2) 60% high-fat food; 3) 30% high-fat food; 4) general feed: NRC standard feed, containing 5% fat, total calories 4200 kcal/kg.
Animal model induction group (16-week-old group): 1) fed with 60% high-fat food for 2 weeks under standard environment; 2) STZ intraperitoneal injection twice every two days, 50 mg/kg each time; 3) After STZ induction, the golden hamsters were continuous fed for 1 week; 4) Blood was taken from the ocular venous plexus, and the initial body weight, blood glucose, total cholesterol, LDL-c, HDL-c and triglyceride were measured, and the golden hamsters were grouped in parallel according to animal biochemical indicators, 8 in each group; 5) Gavage of compounds: 0.1 mL of solution of compound (concentration: 6.8 mg/mL, DMSO solution) and 0.25 mL of whole milk were mixed evenly and administrated by gavage once a day for 2 weeks; 6) Blank control: 0.1 mL of DMSO and 0.25 mL of whole milk were mixed evenly and administrated by gavage once a day for 2 weeks; 7) Observation time: 14 days later, blood was taken from the ocular venous plexus, and the body weight, blood glucose, total cholesterol, LDL-c, HDL-c and triglyceride were measured.
(§2) Instruments: Shimadzu UV-1750 spectrophotometer, clinical determination kit (Changchun Huili Biotechnology Co., Ltd.)
(§3) Determination of blood glucose: glucose oxidase method, kit
(§4) Determination of total cholesterol (COD-PAP method), kit
(§5) Determination of low density lipoprotein cholesterol (direct method), kit
(§6) Determination of triglyceride (GP-PAP method)
(§7) Determination of high density lipoprotein (direct method), kit

The test system of test [2] is Malondialdehyde (MDA) in serum. Nature of the test: In vivo anti-lipid oxidation experiment (serum MDA, TBA method). Set-up: inhibition rate %: concentration or dose not given beside the values. The note with it: MAD lipid peroxidation in vivo; for inhibition rate %: relative to solvent DMSO and Chow averages; for avarage value of OD: serum, TBA method, 532 nm. The source says:
Experimental principle: Malondialdehyde (MDA) in liposome degradation products could condense with thiobarbituric acid (TBA) to form a red product which has a maximum absorption peak at 532 nm. The spectrophotometer was used to measure the relative absorption value to calculate the antioxidant value.
Reagents: Malondialdehyde (MDA) test kit (article number: A003-1, […], Nanjing Jiancheng), glacial acetic acid of analytically pure grade.
Reagent preparations: 1) Reagent I: Reagent 1 in the kit was taken out from the refrigerator and subjected to natural warming until a transparent liquid is obtained; 2) Reagent II: 170 mL of double-distilled water was added to each bottle and mixed; 3) Reagent III: A dry powder in the kit was dissolved in 60 mL of double-distilled water at 90 to 100° C. After the dry powder was dissolved totally, 30 mL of glacial acetic acid was added and kept in dark place; 4) Standard: 10 nmol/mL tetraethoxypropane.
Experimental procedures: 1) Blank tube: To 2 mL centrifuge tube were added anhydrous ethanol (70 μl), Reagent I (70 μl), Reagent II (0.8 mL) and Reagent III (0.8 mL) in sequence; 2) Standard tube: To 2 mL centrifuge tube were added standard (70 μl), Reagent I (70 μl), Reagent 11 (0.8 mL) and Reagent III (0.8 mL) in sequence; 3) Measuring tube: To 2 mL centrifuge tube were added the serum to be tested and physiological saline (the total volume of serum and physiological saline is 70 μl), Reagent I (70 μl), Reagent II (0.8 mL) and Reagent III (0.8 mL) in sequence; 4) Control tubes: all samples are set up with corresponding control tubes. To a 2 mL centrifuge tube were added the serum to be tested and physiological saline (the total volume of serum and physiological saline is 70 μl), Reagent I (70 μl), Reagent II (0.8 mL) and 50% glacial acetic acid (0.8 mL) in sequence.
After the above reagents were added, the mixture was mixed homogenously. Then the mixture was left in the water bath at 95° C. for 60 minutes. The sample was centrifuged at 4000 rpm for 10 minutes. The supernatant was taken for the measurement of the OD value.
Experimental data processing: the MDA content in serum was calculated as follows: MDA=(OD valuemeasured−OD valuecontrol)/OD valuestandard*concentration of the standard Inhibition rate %=100−(ODsample-average value−average value of Chow)/(average value of the solvent DMSO−average value of Chow)*100

Test [3] in a line: In vitro free radical inhibition test (DPPH method). Conditions: 8 μL of 20 mmol/L compound in 1 mL DPPH 0.059 mg/mL ethanol, 60 min dark, 517 nm; for inhibition rate %: DPPH; for Relative inhibition ability on free radicals: inhibition rate of AGI1067 on DPPH defined as 100. The source says: 1. In Vitro Free Radical Inhibition Test (DPPH Method)
The single electron of DPPH radical has a strong absorption at […], and its alcohol solution is purple. In the presence of a free radical scavenger, the absorption of DPPH radical is weakened or disappeared for the reason that the free radical scavenger is paired with the single electron of DPPH radical, and the degree of discoloration is quantitatively related to the number of electrons DPPH radical receives. Therefore, a spectrophotometer can be used to quickly and quantitatively analyze the free radical scavenging rate of the compound.
1) 1 mL solution of DPPH in absolute ethanol (concentration: 0.059 mg/mL) was taken; 2) 8 μL of the compound to be tested (20 mmol/L) were added; 3) after mixing well, the resultant was kept in dark at room temperature for 60 minutes, 4) the absorbance of the sample at 517 nm was measured.
Background: DPPH is a stable violet radical that fades when it is reduced.

Test [4] has as its system golden hamsters (high-fat food, STZ induced). Kind of test: Golden hamster disease model, animal model induction group (24-week-old group): blood biochemical indexes and body weight. It counts as in vivo.
Excerpt: as §1
Animal model induction group (24-week-old group): After STZ induction, the golden hamsters were continuous fed with 30% high-fat food for 8 weeks, blood was taken from the ocular venous plexus, and the initial body weight, blood glucose concentration, total cholesterol, LDL-c, HDL-c and triglyceride were measured, and the golden hamsters were grouped in parallel according to animal biochemical indicators, 8 in each group; 5) Gavage of compounds: 0.1 mL of solution of compound (concentration: 6.8 mg/mL, DMSO solution) and 0.25 mL of whole milk were mixed evenly and administrated by gavage once a day for 2 weeks; 6) Blank control: 0.1 mL of DMSO and 0.25 mL of whole milk were mixed and administrated by gavage, once a day for 2 weeks; 6) Blank control: 0.1 mL of DMSO were mixed with 0.25 mL of whole milk, and administrated by gavage, once a day for 2 weeks; 7) 14 days later, blood was taken from the ocular venous plexus, and the body weight, blood glucose, total cholesterol, LDL-c, HDL-c and triglyceride were measured.
as §2, §3, §4, §5, §6, §7

Where [5] appears, read: after gavage once a day for 2 weeks.
Where [6] appears, read: change rate, gavage once a day for 2 weeks.

On to `CC(O)c1cc(SSc2cc(C(C)O)c(O)c(C(C)(C)C)c2)cc(C(C)(C)C)c1O` (stereo not shown) [Compound 5, 4,4′-disulfanediyl-bis(2-(tert-butyl)-6-(1-hydroxyethyl)phenol)], for which, in test [1], the “change rate of blood glucose %” value is listed as 19.7%, the “change rate of body weight after deduction of DMSO blank %” value (shortened to “change rate … of DMSO blank %”) was −1.9%, the “average body weight after administration/g” value came out at 145.2 g and the “change of body weight/g” value amounted to 10.6 g. In addition, in test [1], the “change rate of body weight %” value was determined as 7.9%, the HDL % came to 38.8%, the LDL % is recorded as −24.9% and the total cholesterol % was −12.2%. Besides, the triglyceride % in test [1] is recorded as −28.5%. Further, in test [2], the inhibition rate % stood at 79.6% and the “avarage value of OD” value is given as 6.21. In test [3], the inhibition rate % was 48.1% and the “Relative inhibition ability on free radicals” value worked out at 110.2. In addition, in test [4] (0.1 mL of 6.8 mg/mL DMSO solution + 0.25 mL whole milk by gavage once a day for 2 weeks), the “change rate of blood glucode %” value is recorded as 11.5%. For the same compound, in test [4] (DMSO blank deducted), the “change rate … of DMSO blank %” value is given as −13.6%. Besides, in test [4] (setting [5]), the “change of body weight/g” value was -25.0 g and the “change rate of body weight %” value is on record as −21.1%. In test [4] (setting [6]), the HDL % is −69.2%, the LDL % is listed as −33.9%, the total cholesterol % worked out at 6.6% and the triglyceride % is on record as −65.8%. The “average body weight at 24 weeks/g” value in test [4] (initial weight before administration) stood at 118.1 g.

Take `CC(C)(Sc1cc(C(C)(C)C)c(O)c(C(C)(C)C)c1)Sc1cc(C(C)(C)C)c(O)c(C(C)(C)CCOC(=O)CCC(=O)O)c1` [Compound 11, 4-(3-(3-(tert-butyl)-5-((2-((3,5-di-tert-butyl-4-hydroxyphenyl)thio)propan-2-yl)thio)-2-hydroxyphenyl)-3-methylbutoxy)-4-oxobutanoic acid]: in test [1], the “change rate of blood glucose %” value is given as 35.3%, the “change rate … of DMSO blank %” value is reported as −5.5%, the “average body weight after administration/g” value is 140.9 g and the “change of body weight/g” value amounted to 5.8 g. Also, in test [1], the “change rate of body weight %” value is listed as 4.3%, the HDL % is 49.7%, the LDL % was −8.1% and the total cholesterol % is listed as −0.4%. The triglyceride % in test [1] was determined as 8.7%. In addition, in test [2], the inhibition rate % was 44.7% and the “avarage value of OD” value is listed as 7.56. Moreover, in test [3], the inhibition rate % was determined as 19.9% and the “Relative inhibition ability on free radicals” value was 45.5.

For `CC(=O)Oc1ccccc1C(=O)OCCC(C)(C)c1cc(SC(C)(C)Sc2cc(C(C)(C)C)c(O)c(C(C)(C)C)c2)cc(C(C)(C)C)c1O` [Compound 13, 3-(3-(tert-butyl)-5-((2-((3,5-di-tert-butyl-4-hydroxyphenyl)thio)propan-2-yl)thio)-2-hydroxyphenyl)-3-methylbutyl 2-acetoxybenzoate], in test [1], the “change rate of blood glucose %” value is reported as −3.9%, the “change rate … of DMSO blank %” value is −7.8%, the “average body weight after administration/g” value came to 136.6 g and the “change of body weight/g” value is on record as 2.6 g. For the same compound, in test [1], the “change rate of body weight %” value stood at 2.0%, the HDL % worked out at 57.9%, the LDL % is reported as −6.7% and the total cholesterol % was −9.0%. The triglyceride % in test [1] is −10.0%. Moreover, in test [2], the inhibition rate % is reported as 53.8% and the “avarage value of OD” value worked out at 7.21. In test [3], the inhibition rate % came out at 34.1% and the “Relative inhibition ability on free radicals” value was determined as 78.2.

Regarding `CC(C)(Sc1cc(C(C)(C)C)c(O)c(C(C)(C)C)c1)Sc1cc(C(C)(C)C)c(O)c(C(C)(C)CCNC(=O)CCCCC2CCSS2)c1` (stereo not shown) [Compound 23, N-(3-(3-(tert-butyl)-5-((2-((3,5-di-tert-butyl-4-hydroxyphenyl)thio)propan-2-yl)thio)-2-hydroxyphenyl)-3-methylbutyl)-5-(1,2-dithiolan-3-yl)pentanamide], in test [1], the “change rate of blood glucose %” value came to 19.5%, the “change rate … of DMSO blank %” value was −3.8%, the “average body weight after administration/g” value is on record as 147.2 g and the “change of body weight/g” value was 8.3 g. In test [1], the “change rate of body weight %” value was found to be 6.0%, the HDL % came to 102.1%, the LDL % was −11.2% and the total cholesterol % is given as −6.4%. In addition, in test [1], the triglyceride % was found to be 21.9%. Moreover, in test [2], the inhibition rate % was determined as 82.6% and the “avarage value of OD” value is 6.10. Moreover, in test [3], the inhibition rate % came out at 12.1% and the “Relative inhibition ability on free radicals” value stood at 27.7.

Source of the values: patent US11649220B2 (DEMOTECH.INC., priority 2018, dated 2023).
